Measured values taken from patent US11046709B2, “Fused 1,4-diazepines as BET bromodomain inhibitors” (THE REGENTS OF THE UNIVERSITY OF MICHIGAN, priority 2017, dated 2021).

Key:
MDA-MB-231 = assay: Cell growth inhibition, 4-day proliferation assay, MDA-MB-231; format: cell-based; conditions: Homo sapiens, MDA-MB-231; WST-8 assay, Table 7; read-out: Cell growth inhibition (IC50 (nM)) MDA-MB-231
In short: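 WST-8 colorimetric read-out (absorbance 450 nm after 1-2 h) after 4-day compound exposure of 3,000-10,000 cells/well at 37 °C; IC50 from variable-slope sigmoid fit of DMSO-normalized signal.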

[1] = Plasma exposure after oral gavage in mice, LC-MS/MS; format: in vivo; conditions: mouse, plasma, mice, oral gavage 25 mg/kg
Protocol: For a number of representative compounds in Table 5, their plasma exposures with oral administration in mice via oral gavage were determined by LC-MS/MS, with the data shown in Table 9.

recombinant BRD4 BD1 = target: T1, recombinant BRD4 BD1 (Homo sapiens, UniProt O60885); assay: Competitive fluorescence-polarization (FP) binding assay, BRD4 BD1; conditions: competitive FP, Table 6; read-out: IC50 as determinined in FP assays BRD4 BD1
T1 construct: for recombinant BRD4 BD1 and BRD4 BD2 proteins
Protocol: Fluorescence Polarization (FP) competitive binding studies were carried out using a FAM labeled fluorescent probe, see, e.g., Cpd. No. 350 of US 2014/0256706, to determine binding affinities of representative Compounds of the Disclosure for recombinant BRD4 BD1 and BRD4 BD2 proteins. Equilibrium dissociation constants (Kd) values of the fluorescent probe to BRD4 BD1 and BD2 proteins were determined from protein saturation experiments by monitoring the total fluorescence polarization of mixtures composed with the fluorescent probe at a fixed concentration and proteins with increasing concentrations up to full saturation. Serial dilutions of testing proteins were mixed with the fluorescent probe to a final volume of 200 μl in the assay buffer (100 mM phosphate buffer, pH=6.5, 0.01% Triton X-100 (Sigma, 282103) being added right before assays). Final fluorescent probe concentration was 1.5 nM for both proteins. Plates were incubated at room temperature for 30 minutes with gentle shaking to assure equilibrium. FP values in millipolarization units (mP) were measured using the Infinite M-1000 plate reader (Tecan U.S., Research Triangle Park, N.C.) in Microfluor 1 96-well, black, round-bottom plates (Thermo Scientific, Waltham, Mass.) at an excitation wavelength of 485 nm and an emission wavelength of 530 nm. Kd values of the fluorescent probe, which were calculated by fitting the sigmoidal dose-dependent FP increases as a function of protein concentrations using Graphpad Prism 6.0 software (Graphpad Software, San Diego, Calif.), are 5.5 and 3.0 nM to BDR4 BD1 and 2, respectively.
The IC50 and Ki values of compounds were determined in a competitive binding experiment. See US 2014/0256706. Mixtures of 10 μl of the tested compounds in assay buffer with 40% Ethylene Glycol and 190 μl of preincubated protein/probe complex solution in the assay buffer (100 mM potassium phosphate, pH 6.5, 0.01% Triton X-100) were added into assay plates which were incubated at room temperature for 30 minutes with gentle shaking. Final concentrations of proteins were 10 and 6 nM in assays for BRD4 BD1 and BD2, respectively. Final probe concentration is 1.5 nM in both assays. Negative controls containing protein/probe complex only (equivalent to 0% inhibition), and positive controls containing only free probes (equivalent to 100% inhibition), were included in each assay plate. FP values were measured as described above. IC50 values were determined by nonlinear regression fitting of the competition curves. Instead of being calculated from IC50 values as described before. Ki values of competitive inhibitors were obtained directly by nonlinear regression fitting as well, based upon the Kd values of the probe to different proteins, and concentrations of the proteins and probes in the competitive assays (US 2014/0256706; Wang, FEBS Lett. 360:111 (1995); Zhang et al., Analytical Biochemistry, 331:138 (2004)).
Representative compounds in Table 5 were evaluated for their binding affinities to BRD4 BD1 and BD2 proteins using the Competitive Fluorescence-Polarization (FP) Assays described in Example 6, with the data included in Table 6.

MOLM-13 = assay: Cell growth inhibition, 4-day proliferation assay, MOLM-13; format: cell-based; conditions: Homo sapiens, MOLM-13, WST-8 assay, Table 7; read-out: Cell growth inhibition (IC50 (nM)) MOLM-13
recombinant BRD4 BD2 = target: T2, recombinant BRD4 BD2 (Homo sapiens, UniProt O60885); assay: Competitive fluorescence-polarization (FP) binding assay, BRD4 BD2; conditions: competitive FP, Table 6; read-out: IC50 as determinined in FP assays BRD4 BD2
T2 construct: for recombinant BRD4 BD1 and BRD4 BD2 proteins

| SMILES | IC50 (MDA-MB-231) [nM] | concentration at 1 h ([1]; 1 h, read-out: Plasma concentration (ng/mL) 1 h) [ng/mL] | concentration at 3 h ([1]; 3 h, read-out: Plasma concentration (ng/mL) 3 h) [ng/mL] | concentration at 6 h ([1]; 6 h, read-out: Plasma concentration (ng/mL) 6 h) [ng/mL] | IC50 (recombinant BRD4 BD1) [µM] | IC50 (MOLM-13) [nM] | IC50 (recombinant BRD4 BD2) [µM] |
| --- | --- | --- | --- | --- | --- | --- | --- |
| Cc1c(C#Cc2ccccn2)sc2c1C(c1ccc(Cl)cc1)=N[C@@H](CC(=O)N1CCOCC1)c1nnc(C)n1-2 [Compound 126, (S)-2-(4-(4-chlorophenyl)-3,9-dimethyl-2-(pyridin-2-ylethynyl)-6H-thieno[3,2-f][1,2,4]triazolo[4,3-a][1,4]diazepin-6-yl)-1-morpholinoethan-1-one] | 60.7 | 2910 | 599 | 473 | 0.0087 | 13.5 | 0.0278 |
| Cc1c(C#Cc2ccccn2)sc2c1C(c1ccc(Cl)cc1)=N[C@@H](CC(=O)NC1CCN(C)CC1)c1nnc(C)n1-2 [Compound 130, (S)-2-(4-(4-chlorophenyl)-3,9-dimethyl-2-(pyridin-2-ylethynyl)-6H-thieno[3,2-f][1,2,4]triazolo[4,3-a][1,4]diazepin-6-yl)-N-(1-methylpiperidin-4-yl)acetamide] | 13 | – | – | – | 0.0087 | 3.84 | 0.019 |
| Cc1c(C#Cc2ccccn2)sc2c1C(c1ccc(Cl)cc1)=N[C@@H](CC(=O)N1CCC(O)CC1)c1nnc(C)n1-2 [Compound 123, (S)-2-(4-(4-chlorophenyl)-3,9-dimethyl-2-(pyridin-2-ylethynyl)-6H-thieno[3,2-f][1,2,4]triazolo[4,3-a][1,4]diazepin-6-yl)-1-(4-hydroxypiperidin-1-yl)ethan-1-one] | 61.1 | – | – | – | 0.0204 | 71.6 | 0.0594 |
| Cc1c(C#Cc2ccccn2)sc2c1C(c1ccc(Cl)cc1)=N[C@@H](CC(=O)N1CC3(COC3)C1)c1nnc(C)n1-2 [Compound 124, (S)-2-(4-(4-chlorophenyl)-3,9-dimethyl-2-(pyridin-2-ylethynyl)-6H-thieno[3,2-f][1,2,4]triazolo[4,3-a][1,4]diazepin-6-yl)-1-(2-oxa-6-azaspiro[3.3]heptan-6-yl)ethan-1-one] | 86.3 | – | – | – | 0.0109 | 57.4 | 0.062 |
| Cc1c(C#Cc2ccccn2)sc2c1C(c1ccc(Cl)cc1)=N[C@@H](CC(=O)N1CC(F)(F)C1)c1nnc(C)n1-2 [Compound 127, (S)-2-(4-(4-chlorophenyl)-3,9-dimethyl-2-(pyridin-2-ylethynyl)-6H-thieno[3,2-f][1,2,4]triazolo[4,3-a][1,4]diazepin-6-yl)-1-(3,3-difluoroazetidin-1-yl)ethan-1-one] | 47 | – | – | – | 0.0259 | 57 | 0.079 |
| Cc1c(C#Cc2ccccn2)sc2c1C(c1ccc(Cl)cc1)=N[C@@H](CC(=O)N1CCC(F)(F)CC1)c1nnc(C)n1-2 [Compound 132, (S)-2-(4-(4-chlorophenyl)-3,9-dimethyl-2-(pyridin-2-ylethynyl)-6H-thieno[3,2-f][1,2,4]triazolo[4,3-a][1,4]diazepin-6-yl)-1-(4,4-difluoropiperidin-1-yl)ethan-1-one] | 91.9 | – | – | – | 0.0224 | 80 to 160 | 0.0335 |
| Cc1c(C#Cc2ccccn2)sc2c1C(c1ccc(Cl)cc1)=N[C@@H](CC(C)C)c1nnc(C)n1-2 [Compound 105, (S)-4-(4-chlorophenyl)-6-isobutyl-3,9-dimethyl-2-(pyridin-2-ylethynyl)-6H-thieno[3,2-f][1,2,4]triazolo[4,3-a][1,4]diazepine] | 400 ± 200 | – | – | – | 0.0339 | 348 | 0.0265 |
| CC(=O)NNC(=O)C[C@@H]1N=C(c2ccc(Cl)cc2)c2c(sc(C#Cc3ccccn3)c2C)-n2c(C)nnc21 [Compound 128, (S)—N′-acetyl-2-(4-(4-chlorophenyl)-3,9-dimethyl-2-(pyridin-2-ylethynyl)-6H-thieno[3,2-f][1,2,4]triazolo[4,3-a][1,4]diazepin-6-yl)acetohydrazide] | 202 | – | – | – | 0.0217 | 42.6 | 0.0128 |
| Cc1c(C#Cc2ccccn2)sc2c1C(c1ccc(Cl)cc1)=N[C@@H](Cc1nnc(C3CC3)o1)c1nnc(C)n1-2 [Compound 136, (S)-2-((4-(4-chlorophenyl)-3,9-dimethyl-2-(pyridin-2-ylethynyl)-6H-thieno[3,2-f][1,2,4]triazolo[4,3-a][1,4]diazepin-6-yl)methyl)-5-cyclopropyl-1,3,4-oxadiazole] | 52.1 | – | – | – | 0.0113 | 28.1 | 0.0601 |
| Cc1c(C#Cc2cccnc2)sc2c1C(c1ccc(Cl)cc1)=N[C@@H](CC(=O)N1CCC(O)CC1)c1nnc(C)n1-2 [Compound 117, (S)-2-(4-(4-chlorophenyl)-3,9-dimethyl-2-(pyridin-3-ylethynyl)-6H-thieno[3,2-f][1,2,4]triazolo[4,3-a][1,4]diazepin-6-yl)-1-(4-hydroxypiperidin-1-yl)ethan-1-one] | 79.6 | – | – | – | 0.0063 | 19.8 | 0.0104 |
| Cc1c(C#Cc2cccnc2)sc2c1C(c1ccc(Cl)cc1)=N[C@@H](CC(=O)OC(C)(C)C)c1nnc(C)n1-2 [Compound 111, tert-butyl (S)-2-(4-(4-chlorophenyl)-3,9-dimethyl-2-(pyridin-3-ylethynyl)-6H-thieno[3,2-f][1,2,4]triazolo[4,3-a][1,4]diazepin-6-yl)acetate] | 98.6 | – | – | – | 0.0048 | 32.7 | 0.017 |
| Cc1c(C#Cc2cccnc2)sc2c1C(c1ccc(Cl)cc1)=N[C@@H](CC(=O)N1CCOCC1)c1nnc(C)n1-2 [Compound 118, (S)-2-(4-(4-chlorophenyl)-3,9-dimethyl-2-(pyridin-3-ylethynyl)-6H-thieno[3,2-f][1,2,4]triazolo[4,3-a][1,4]diazepin-6-yl)-1-morpholinoethan-1-one] | 103 | – | – | – | 0.0061 | 9.2 | 0.0277 |
| CCNC(=O)C[C@@H]1N=C(c2ccc(Cl)cc2)c2c(sc(C#Cc3cccnc3)c2C)-n2c(C)nnc21 [Compound 114, (S)-2-(4-(4-chlorophenyl)-3,9-dimethyl-2-(pyridin-3-ylethynyl)-6H-thieno[3,2-f][1,2,4]triazolo[4,3-a][1,4]diazepin-6-yl)-N-ethylacetamide] | 39.4 | – | – | – | 0.0082 | 13.8 | 0.0047 |
| Cc1c(C#Cc2cccnc2)sc2c1C(c1ccc(Cl)cc1)=N[C@@H](CC(N)=O)c1nnc(C)n1-2 [Compound 113, (S)-2-(4-(4-chlorophenyl)-3,9-dimethyl-2-(pyridin-3-ylethynyl)-6H-thieno[3,2-f][1,2,4]triazolo[4,3-a][1,4]diazepin-6-yl)acetamide] | 23.9 | – | – | – | 0.0041 | 2.7 | 0.0114 |
| Cc1c(C#Cc2cccnc2)sc2c1C(c1ccc(Cl)cc1)=N[C@@H](CC(=O)N1CCN(C)CC1)c1nnc(C)n1-2 [Compound 115, (S)-2-(4-(4-chlorophenyl)-3,9-dimethyl-2-(pyridin-3-ylethynyl)-6H-thieno[3,2-f][1,2,4]triazolo[4,3-a][1,4]diazepin-6-yl)-1-(4-methylpiperazin-1-yl)ethan-1-one] | 65.1 | – | – | – | 0.0096 | 21.9 | 0.0063 |
